Data taken from patent US12509460B2 (Skyhawk Therapeutics, Inc., priority 2019, dated 2025).
“And” between values parts separate entries of the source, which are not always exact repeats. Equal entries are not always repeated. Where two headings read alike, the source gives them in different places.

How the values were obtained:
[1] = Quantitative splicing assay (HTT), qPCR; assay type: cell-based, human; settings: Homo sapiens, GM04724, 24 h, GM04724 lymphoblasts, read-out: HTT Splicing: E49-50 EC50
Protocol: Example A9: Quantitative Splicing Assay (HTT)
GM04724 (CAG 70/20) Huntington's disease patient lymphoblasts (Coriell) are plated in 96-well v-bottom plates at 50,000 cells/well. Immediately after plating, cells are dosed with compound for 24 h at concentrations ranging from 2.5 uM to 0.15 nM (0.1% DMSO). Treated cells are lysed and cDNA synthesized using the Fast Advanced Cells-to-Ct kit (Thermofisher A35378) according to the manufacturer's instructions. 2 uL of each cDNA are used in qPCR reactions to confirm the compound-induced inclusion of a cryptic exon within intron 49 of the Huntingtin (HTT) transcripts. The qPCR reactions are prepared in 384-well plates in 10 uL volume, using TagMan™ Fast Advanced Master Mix [ThermoFisher, 4444965] with primers and probes shown in the table below. Reactions are run in a Quant studio 6 qPCR instrument with default settings.

[2] = test system: mHTT protein in GM04724 (CAG 70/20) Huntington's disease patient lymphoblast cells; assay: mHTT protein assay, 2B7-MW1 assay via Mesoscale Discovery (MSD); assay type: cell-based, human
Procedure, shortened: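 Signal from the 2B7-MW1 antibody pair on MSD, rising with polyQ length and smaller HTT fragments, measured mHTT after 48 h compound exposure (0.6 nM–10 μM) in GM04724 cells. A parallel replicate plate gave CellTiter Glo viability.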

[3] = test system: SMN protein in spinal muscular atrophy (SMA) patient fibroblasts (GM03813, Coriell); assay: SMN protein assay, Mesoscale Discovery (MSD); assay type: cell-based, human; settings: for EC50: read-out: SMN2 protein EC50
Procedure, shortened: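 Absolute SMN levels were quantified by MSD against an SMN protein standard curve (1 μg/ml to 19.5 pg/ml) run on each plate. Samples were lysates of GM03813 patient fibroblasts (7000 cells/well) treated 48 hours with compound doses from 2.5 μM down to 0.6 nM.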

MDR1 (P-gp) = assay: Blood-brain-barrier (BBB) penetration potential via MDCK-MDR1 permeability assay; settings: dog; for Papp A→B at 120 min, 5 μM: MDCK-MDR1, pH 7.4, MDCK-MDR1: Papp A-B; for Papp B→A at 120 min, 5 μM: MDCK-MDR1, pH 7.4, MDCK-MDR1: Papp B-A
[4] = test system: MDR1-MDCK cell monolayers; assay: as above
MDR1 = assay: as above; settings: dog, MDCK-MDR1, pH 7.4, MDCK-MDR1: Efflux
[5] = test system: SMN FL and SMN Δ7 in spinal muscular atrophy (SMA) patient fibroblasts (GM03813, Coriell); assay: Quantitative splicing assay (SMN), qPCR; assay type: cell-based, human; settings: read-out: SMN2 Splicing FL EC50
Protocol: Spinal muscular atrophy (SMA) patient fibroblasts (GM03813, Coriell) are plated in 96-well plates at 50,000 cells/well. […] Treated cells are lysed and cDNA synthesized using the Fast Advanced Cells-to-Ct kit (Thermofisher A35378) according to the manufacturer's instructions. 2 μL of each cDNA are used in qPCR reactions. […] Reactions are run in a Quant Studio 6 qPCR instrument with default settings.

[6] = GM04724 Huntington's disease patient lymphoblasts
[7] = SMA patient fibroblasts GM03813, 48 hours, MSD
[8] = GM04724 (CAG 70/20) Huntington's disease patient lymphoblasts
[9] = SMA patient fibroblasts (GM03813), 48 hours
[10] = Homo sapiens, Fibroblast, 24 h, SMA patient fibroblasts (GM03813), 24 h
[11] = Homo sapiens, Fibroblast, 24 h, SMA patient fibroblasts GM03813, 24 h, qPCR

Structure (SMILES)	EC50 ([1]; qPCR) [nM]	EC50 [2, 6] [nM]	Papp A→B at 120 min, 5 μM (MDR1 (P-gp); A-B direction) [×10⁻⁶ cm/s]	Papp B→A at 120 min, 5 μM (MDR1 (P-gp); B-A direction) [×10⁻⁶ cm/s]	MDCK-MDR1: % Recov A-B ([4]; A-B direction)	MDCK-MDR1: % Recov B-A ([4]; B-A direction)	efflux ratio at 120 min, 5 μM (MDR1; efflux ratio)	EC50 [3, 7] [nM]	further results
CN(c1ccc(-c2cc3ncn(C)c(=O)c3cc2O)nn1)[C@@H]1C[C@H]2CC[C@H](N2)[C@@H]1F [Compound 51A, 7-(6-(((1S,2S,3R,5R)-2-fluoro-8-azabicyclo[3.2.1]octan-3-yl)(methyl)amino)pyridazin-3-yl)-6-hydroxy-3-methylquinazolin-4(3H)-one]	0.01 to 15	0.01 to 15	0.81	38	94%	86%	47	–	SMN2 protein EC50 [3, 7]: E (501 ≤ E ≤ 10.000)
CN(c1ccc(-c2cc(C#N)c(F)cc2O)nn1)[C@H]1C[C@@H]2CC[C@@H](N2)[C@H]1F [Compound 72B, 2-fluoro-5-(6-(((1R,2R,3S,5S)-2-fluoro-8-azabicyclo[3.2.1]octan-3-yl)(methyl)amino)pyridazin-3-yl)-4-hydroxybenzonitrile]	101 to 500	101 to 500	10.9	36.4	78%	74%	3	51 to 100	–
Cc1cnc(-c2ccc(-c3ccc(N(C)C4CC5CCC(N5)C4F)nn3)c(O)c2)o1 (single isomer, unassigned) [Compound 48B]	16 to 50	16 to 50	6.56	24.5	67%	84%	4	0.01 to 15	–
CN(c1ccc(-c2cc3cnccc3cc2O)nn1)[C@@H]1C[C@H]2CCC[C@H](N2)[C@@H]1F [Compound 121A, 7-(6-(((1S,2S,3R,5R)-2-fluoro-9-azabicyclo[3.3.1]nonan-3-yl)(methyl)amino)pyridazin-3-yl)isoquinolin-6-ol]	–	–	–	–	–	–	–	–	EC50 [1]: 51 to 100 nM; EC50 [2, 8]: 16 to 50 nM; SMN2 protein EC50 [3, 9]: E (501 ≤ E ≤ 10.000); Papp A→B at 120 min, 5 μM (MDR1 (P-gp); A-B): 2.65 ×10⁻⁶ cm/s; Papp B→A at 120 min, 5 μM (MDR1 (P-gp); B-A): 29.8 ×10⁻⁶ cm/s; MDCK-MDR1: % Recov A-B ([4]; A-B): 81%; MDCK-MDR1: % Recov B-A ([4]; B-A): 95%; efflux ratio at 120 min, 5 μM (MDR1): 11
CN(c1ccc(-c2ccc(-c3cnn(C)c3)cc2O)nn1)[C@@H]1C[C@H]2CC(F)(F)[C@@H](C1)N2 [Compound 3A, 2-(6-(((1S,3R,5R)-6,6-difluoro-8-azabicyclo[3.2.1]octan-3-yl)(methyl)amino)pyridazin-3-yl)-5-(1-methyl-1H-pyrazol-4-yl)phenol]	0.01 to 15	16 to 50	19.3	33.8	75%	81%	2	16 to 50	–
CN(c1ccc(-c2cc3ccncc3s2)nn1)[C@H]1C[C@@H]2CC[C@@H](N2)[C@H]1F [Compound 65B, (1R,2R,3S,5S)-2-fluoro-N-methyl-N-(6-(thieno[2,3-c]pyridin-2-yl)pyridazin-3-yl)-8-azabicyclo[3.2.1]octan-3-amine]	101 to 500	51 to 100	6.9	54.6	84%	87%	8	16 to 50	–
CN(c1ccc(-c2cc3c(=O)[nH]ccc3s2)nn1)[C@@H]1C[C@H]2CC[C@H](N2)[C@@H]1F [Compound 6A, 2-(6-(((1S,2S,3R,5R)-2-fluoro-8-azabicyclo[3.2.1]octan-3-yl)(methyl)amino)pyridazin-3-yl)thieno[3,2-c]pyridin-4(5H)-one]	10 to 501	–	0.09	6.69	90% and 95%	91% and 82%	74	51 to 100	SMN2 protein EC50 [3, 7]: E (501 ≤ E ≤ 10.000); MDCK-MDR1: Papp A-B ([4]; A-B direction): 0.06 10^−6, cm/s; MDCK-MDR1: Papp B-A ([4]; B-A direction): 7.34 10^−6, cm/s; MDCK-MDR1: Efflux ([4]; efflux ratio): 121
Cc1nc2cc(-c3ccc(N(C)[C@H]4C[C@@H]5CC[C@@H](N5)[C@H]4F)nn3)c(O)cc2c(=O)n1CC(F)(F)F [Compound 113B, 7-(6-(((1R,2R,3S,5S)-2-fluoro-8-azabicyclo[3.2.1]octan-3-yl)(methyl)amino)pyridazin-3-yl)-6-hydroxy-2-methyl-3-(2,2,2-trifluoroethyl)quinazolin-4(3H)-one]	–	–	–	–	–	–	–	–	EC50 [2, 8]: 101 to 500 nM; EC50 [5, 10]: 16 to 50 nM; EC50 [3, 9]: 0.01 to 15 nM; Papp A→B at 120 min, 5 μM (MDR1 (P-gp); A-B): 0.3 ×10⁻⁶ cm/s; Papp B→A at 120 min, 5 μM (MDR1 (P-gp); B-A): 68.4 ×10⁻⁶ cm/s; MDCK-MDR1: % Recov A-B ([4]; A-B): 101%; MDCK-MDR1: % Recov B-A ([4]; B-A): 123%; efflux ratio at 120 min, 5 μM (MDR1): 232
COc1cc(-c2ccc(-c3ccc(N(C)[C@H]4CC5N[C@@H](C4)CC5(F)F)nn3)c(O)c2)cnn1 (single isomer, unassigned) [Compound 2A]	–	16 to 50	11.3	39	54%	81%	3	16 to 50	EC50 ([5]; SMA patient fibroblasts GM03813, 24 h, qPCR): 16 to 50 nM
Cc1ccc(-c2ccc(-c3ccc(N(C)[C@@H]4C[C@H]5CC[C@H](N5)[C@@H]4F)nn3)c(O)c2)nn1 (single isomer, unassigned) [Compound 25A]	–	101 to 500	1.79	55	99%	99%	31	0.01 to 15	EC50 [5, 11]: 101 to 500 nM
CN(c1ccc(-c2cc3ncn(CC(F)(F)F)c(=O)c3cc2O)nn1)[C@H]1C[C@@H]2CC[C@@H](N2)[C@H]1F [Compound 81B, 7-(6-(((1R,2R,3S,5S)-2-fluoro-8-azabicyclo[3.2.1]octan-3-yl)(methyl)amino)pyridazin-3-yl)-6-hydroxy-3-(2,2,2-trifluoroethyl)quinazolin-4(3H)-one]	–	51 to 100	0.4	54.6	96%	100%	138	0.01 to 15	EC50 [5, 11]: 16 to 50 nM
Cc1cc(=O)c2cc(-c3ccc(N(C)[C@H]4C[C@@H]5CC[C@H]([C@H]4F)N5C)nn3)c(O)cc2o1 [Compound 100B, 6-(6-(((1R,2R,3S,5S)-2-fluoro-8-methyl-8-azabicyclo[3.2.1]octan-3-yl)(methyl)amino)pyridazin-3-yl)-7-hydroxy-2-methyl-4H-chromen-4-one]	–	–	–	–	–	–	–	–	EC50 [2, 8]: 51 to 100 nM; EC50 [5, 10]: 16 to 50 nM; EC50 [3, 9]: 16 to 50 nM; Papp A→B at 120 min, 5 μM (MDR1 (P-gp); A-B): 9.57 ×10⁻⁶ cm/s; Papp B→A at 120 min, 5 μM (MDR1 (P-gp); B-A): 38.7 ×10⁻⁶ cm/s; MDCK-MDR1: % Recov A-B ([4]; A-B): 79%; MDCK-MDR1: % Recov B-A ([4]; B-A): 80%; efflux ratio at 120 min, 5 μM (MDR1): 4
CN(c1ccc(-c2cc3cccnc3cc2O)nn1)[C@@H]1C[C@H]2CC(F)(F)[C@@H](C1)N2 [Compound 45A, 6-(6-(((1S,3R,5R)-6,6-difluoro-8-azabicyclo[3.2.1]octan-3-yl)(methyl)amino)pyridazin-3-yl)quinolin-7-ol]	–	51 to 100	9.45	54.6	104%	115%	6	16 to 50	EC50 [5, 11]: 101 to 500 nM
